Test results from patent US6355663B1, “Substituted isoxazolylthiophene compounds” (Taisho Pharmaceutical Co., Ltd., priority 1998, dated 2002).

Columns and labels:
[1] = system: osteoblasts derived from the parietal bone of rat fetus; experiment: Enhancing activity for the induction of alkaline phosphatase production in osteoblasts; format: cell-based; settings: test compound 2.5 μg/ml; compared with activity without the test compound; rat fetal parietal bone osteoblasts
Experimental: The compounds of the present invention were determined for an enhancing activity for the induction of alkaline phosphatase production in osteoblasts derived from the parietal bone of rat fetus. Enhancing activities for the induction of alkaline phosphatase production at a concentration of the test compound of 2.5 μg/ml were 195% for Example 1, 155% for Example 3, 187% for Example 7 and 134% for Example 9, respectively, when compared with those activities without the test compounds.

[2] = system: osteoblasts derived from the parietal bone of rat fetus; experiment: Enhancing activity for the nodule induction in osteoblasts; format: cell-based; settings: rat fetal parietal bone osteoblasts
Experimental: The compounds of the invention were determined for an enhancing activity for the nodule induction in osteoblasts derived from the parietal bone of rat fetus. Results were 342% at 1.0 μg/ml for Example 1, 501% at 2.5 μg/ml for Example 3, 576% at 2.5 μg/ml for Example 7 and 550% at 2.5 μg/ml for Example 9, respectively.

Row | SMILES | Enhancing activity for the induction of alkaline phosphatase production [1] [%] | Enhancing activity for the nodule induction ([2]; at 2.5 μg/ml) [%] | melting point [°C] | Enhancing activity for the nodule induction ([2]; at 1.0 μg/ml) [%]
1 | CCc1cnoc1-c1c(SC)sc(C(N)=O)c1C [Example 7, 4-(4-Etkylisoxazol-5-yl)-3-methyl-5-(methylthio)-thiophene-2-carboxamide] | 187 | 576 |  | 
2 | CSc1sc(C(N)=O)c(C)c1-c1oncc1C(C)C [Example 9] | 134 | 550 |  | 
3 | CCc1c(C(N)=O)sc(SC)c1-c1oncc1C [Example 3, 3-Ethyl-4-(4-methylisoxazol-5-yl)-5-(methylthio)thiophene-2-carboxamide] | 155 | 501 | 93.5 to 94.5 | 
4 | CSc1sc(C(N)=O)c(C)c1-c1oncc1C [Example 1, 3,4′-Dimethyl-4-(isoxazol-5-yl)-5-(methylthio)thiophene-2-carboxamide] | 195 |  |  | 342
